Source: patent publication US5543410A, “Pharmacological use of phthaloylhydrazide derivatives; combination and application thereof” (L.I.M.A.D. Limited, priority 1993, dated 1996)

How the values were obtained:
[1] = metabolic products; type: in vivo; settings: metabolite
[2] = system: Sprague-Dawley Rats' Lipid Metabolism and Serum Lipoproteins; settings: reducing serum cholesterol; cited from earlier work
[3] = system: piglets affected by dysentery; assay: dysentery in piglets; type: in vivo
Description: Experiments were performed with piglets weighing from 30 to 40 kgs, which were affected by dysentery.
Nevertheless, symptoms reappeared six to seven hours later in one group of animals. This factor rendered repeated administration of the drug necessary.

[4] = system: proctitis attributable to radiation therapy; settings: in vivo
From the text: B., a patient who was […], complained of burning sensations in the anus, along with frequent and painful urination, after having received radiation therapy for a period of forty-five days. During a rectosigmoidoscopy examination, intense edema and contact hemorrhaging within the rectal mucosae were observed above the tumor. The diagnosis was: proctitis and cystitis arising from radiation therapy. On account of a lack of specific therapeutic measures, the drug was prescribed for the patient according to a dose of 100 mg per day.

[5] = aqueous solutions, sodium salt
[6] = system: skin diseases; settings: water-soluble applications and ointments

With Nc1ccc(C(=O)O)c(C(=O)O)c1 [5-aminophthalic acid] the excretion unmodified [1] was “Most of the aminophthalic acid is expelled from the body without undergoing modification”.
For O=c1[nH][nH]c(=O)c2ccccc12 [2,3-dihydrophthalazine-1,4-dione], the activity [2] is given as “extremely high level of activity”.
With Nc1ccc2c(=O)[nH][nH]c(=O)c2c1 [4-aminophthaloylhydrazide] the therapeutic effect ([3]; 10, 25, and 50 mg/kg, third series) was “relatively insignificant”.
For Nc1cccc2c(=O)[nH][nH]c(=O)c12, the “effectiveness in proctitis attributable to radiation therapy” value [4] was “effective for proctitis attributable to radiation therapy”, the “time to improvement of condition, diarrhea ceased” value ([3]; 50 mg/kg, first series) was “sixty” and the “time to reappearance of symptoms” value ([3]; 50 mg/kg, first series, one group of animals) was “six to seven”. For the same compound, the “period remaining fully active” value [5] was “sixty to eighty” and the “effectiveness in external use” value [6] was “more effective”.
